Structures are written as SMILES.

The term IC50 denotes the point on the concentration scale where inhibition reaches its midpoint.

The target of this assay is T1, CDK2/Cyclin E (Homo sapiens, UniProt P24941).
T1 construct: The open reading frames of CDK2 and Cyclin E were isolated; made in house; host or cells: Sf21 (Spodoptera frugiperda) insect cells, baculovirus co-infection; the GST-Rb substrate was made in E. coli BL21 (DE3) pLysS
In words: in vitro kinase Scintillation Proximity Assay, incorporation of [γ-33-P]-ATP into GST-Rb. It is filed as biochemical. The settings on record: GST-Rb substrate, 0.2 μM ATP, 60 minutes at room temperature. On the procedure: The compounds were tested in an in vitro kinase assay in 96 well format using Scintillation Proximity Assay (SPA - obtained from Amersham) for measuring incorporation of [γ-33-P]-Adenosine Triphosphate into a test substrate (GST-Retinoblastoma protein; GST-Rb). In each well was placed the compound to be tested (diluted in DMSO and water to correct concentrations) and in control wells either roscovitine as an inhibitor control or DMSO as a positive control.
Approximately 0.2 μl of CDK2/Cyclin E partially-purified enzyme (amount dependent on enzyme activity) diluted in 25 μl incubation buffer was added to each well then 20 μl of GST-Rb/ATP/ATP33 mixture (containing 0.5 μg GST-Rb and 0.2 μM ATP and 0.14 μCi [γ-33-P]-Adenosine Triphosphate in incubation buffer), and the resulting mixture shaken gently, then incubated at room temperature for 60 minutes.
To each well was then added 150 μL stop solution containing (0.8 mg/well of Protein A-PVT SPA bead (Amersham)), 20 pM/well of Anti-Glutathione Transferase, Rabbit IgG (obtained from Molecular Probes), 61 mM EDTA and 50 mM HEPES pH 7.5 containing 0.05% sodium azide.
The plates were sealed with Topseal-S plate sealers, left for two hours then spun at 2500 rpm, 1124 xg., for 5 minutes. The plates were read on a Topcount for 30 seconds per well.
The incubation buffer used to dilute the enzyme and substrate mixes contained 50 mM HEPES pH7.5, 10 mM MnCl2, 1 mM DTT, 100 μM Sodium vanadate, 100 μM NaF, 10 mM Sodium Glycerophosphate, BSA (1 mg/ml final).
In this assay only part of the retinoblastoma protein (Science 1987 Mar. 13;235(4794):1394-1399; Lee W. H., Bookstein R., Hong F., Young L. J., Shew J. Y., Lee E. Y.) was used, fused to a GST tag. […]
The open reading frames of CDK2 and Cyclin E were isolated by reverse transcriptase-PCR using HeLa cell and activated T cell mRNA as a template and cloned into the insect expression vector pVL1393 (obtained from Invitrogen 1995 catalogue number: V1392-20). […]
On the technique in general: Scintillation proximity formats need no separation of bound from free tracer.
Regarding `c1ccc(Nc2nccc(-c3cnc4n3CCCC4)n2)cc1` [Example 2, 2-anilino-4-(5,6,7,8-tetrahydroimidazo[1,2-a]pyridin-3-yl)pyrimidine], it took 21 nM to reach half-maximal inhibition (IC50).
Under `c1ccc(Nc2nccc(-c3cnc4n3CCOC4)n2)cc1` [Example 5, 2-Anilino-4-(5,6-dihydro-8H-imidazo[2,1-c][1,4]oxazin-3-yl)pyrimidine] stands 42 nM; under `COCCNS(=O)(=O)c1ccc(Nc2nccc(-c3cnc4n3CCOC4)n2)cc1` [Example 9], 13 nM.
